Patent US20230183640A1, “METABOLIC INHIBITORS WITH EFFICACY FOR INHIBITING SULFIDE PRODUCTION IN HARSH ENVIRONMENTS” (MC (US) 3 LLC, priority 2020, published 2023)

What was measured:
[1] = test system: Desulfovibrio alaskensis 14563; experiment: H2S and Log (Growth) efficacy against SRB, 96-Well Plate Method; format: cell-based
Protocol: A lyophilized Desulfovibrio alaskensis 14563, Desulfovibrio longus 51456, and Desulfovibrio gabonensis 700201 pure cultures received from ATCC were resuspended individually in 500 ul of MB 1250. Aseptically, the content was transferred to a 5-mL tube of MB1250 medium. The cultures were incubated in an anaerobic chamber at 30° C. for 72 hrs. Subsequently, an individual stock culture with a final concentration of 25% glycerol were prepared by adding equal volumes of culture and 50% glycerol. 1 ml of the cultures were then transferred to 2-ml cryogenic vials and stored at −80° C. The purity of the stock cultures was evaluated through PCR, by amplifying the 16S rDNA region, and thus, it was verified that the original ATCC sample was a pure culture. 48-hour cultures of ATCC Desulfovibrio alaskensis 14563, Desulfovibrio longus 51456, and Desulfovibrio gabonensis 700201 were prepared in an anaerobic chamber. Each culture was prepared as a 1:10 culture by taking 1 milliliter (mL) of a pure culture and inoculating 9 milliliters (mL) of fresh MB1250 media. The Desulfovibrio alaskensis 14563 and Desulfovibrio gabonensis 700201 were all grown at 30° C. and the Desulfovibrio longus 51456 culture was grown at 35° C.
After the 48-hour incubation, 600 microliters (μL) were taken from each culture and optical density (OD) was measured using a Thermofisher Spectronic 200 Spectrophotometer at 600 nm. Each culture was diluted to 0.05 OD600 in fresh MB1250 media and added to the 96 well plates. Edge wells were not used due to their inherent variability and evaporation of the media. Each of the components were added at their respective concentrations for a final volume of 500 μL per well. In Table 3, 6 and 7, the concentrations of the compound used for the experiments are listed. Each experiment was done with at least three replicates for different treatments and non-treatment controls. […] Plates were then sealed with a titer-top and placed into anaerobic boxes and incubated in an anaerobic incubator at 30° C.
At each time point, sulfide samples were taken, and enumeration plates were made. Enumeration plates were made to determine the log growth in each dosed sample. For this process, enumeration plates were prepared by adding 180 μL fresh media MB1250 containing 0.01 wt % ferrous ammonium sulfate. 20 μL was taken from each well of the challenge plates and transferred to the enumeration plates using a 20-200 μL multichannel pipette. Enumeration plates were mixed three times using the multichannel pipette and serial diluted down the plate tenfold (20 μL into 180 μL). This serial dilution process was repeated for all challenge plate rows giving a total of 6 enumeration plates.
After 7 days these enumeration plates were read. The ferrous ammonium sulfate in each plate would be converted to iron sulfide, changing wells with SRB growth from clear to black. By counting the number of black wells in a row, the log growth from the original well in the challenge plate can be determined.
To determine hydrogen sulfide production in each sample, sulfide samples were also taken from each challenge plate. From each well, 9 μL were taken and added to 60 μL of 2% zinc acetate with 0.02% acetic acid. Then, 180 μL of milliQ water was added. 60 μL of stock solution 1 containing 64% sulfuric acid, <1% Dimethyl-4-phenylenediamine (DMPD), water to 100% was added to each well on the plates. This was followed by 3 μL of stock solution 3 containing 50% Iron (III) chloride. All chemicals are ordered from Fisher Scientific and used as received. These were mixed three times and read after 15 minutes. The plates were read at 670 nm using a Biotek microplate reader. Absorbance readings were converted to mM using a standard curve and this was converted to parts per million using the molar mass of sulfur. The standard curves were made using sodium sulfide nonahydrate solutions to give final solutions of 0, 0.125, 0.25 0.5, 1.0, and 1.5 ppm.

[2] = test system: various microorganism strains; experiment: Comparative testing of C1 in aerobic and anaerobic conditions; format: cell-based; details: Examples 2 and 3
Source text: Therefore, to further analyze the efficacy of compound C1, comparative testing was done in both aerobic and anaerobic conditions using additional bacteria cultures. For aerobic conditions testing, the following strains were used: Escherichia coli, Pseudomonas aeruginosa, Enterobacter aerogenes, and Klebsiella pneumoniae. For anaerobic testing, the following strains were used: Klebsiella pneumoniae, Enterobacter aerogenes, Escherichia coli, and Enterococcus faecalis.

O=C(CN1C(=O)c2cccc3cccc(c23)C1=O)NO [C1]
H2S ([1]; 3 days, 6.4 PPM): 15.5 PPM
Log (Growth) ([1]; 3 days, 6.4 PPM): 2.7
H2S ([1]; 3 days, 12.8 PPM): 13.5 PPM
Log (Growth) ([1]; 3 days, 12.8 PPM): 2.0
H2S ([1]; 3 days, 25.6 PPM): 15.1 PPM
Log (Growth) ([1]; 3 days, 25.6 PPM): 0.0
H2S ([1]; 3 days, 51.3 PPM): 15.4 PPM
Log (Growth) ([1]; 3 days, 51.3 PPM): 0.0
H2S ([1]; 3 days, 102.5 PPM): 13.6 PPM
Log (Growth) ([1]; 3 days, 102.5 PPM): 0.3
H2S ([1]; 3 days, 205.0 PPM): 12.7 PPM
Log (Growth) ([1]; 3 days, 205.0 PPM): 0.3
H2S ([1]; 6 days, 6.4 PPM): 18.1 PPM
Log (Growth) ([1]; 6 days, 6.4 PPM): 3.3
H2S ([1]; 6 days, 12.8 PPM): 23.5 PPM
Log (Growth) ([1]; 6 days, 12.8 PPM): 2.7
H2S ([1]; 6 days, 25.6 PPM): 8.8 PPM
Log (Growth) ([1]; 6 days, 25.6 PPM): 1.0
H2S ([1]; 6 days, 51.3 PPM): 8.3 PPM
Log (Growth) ([1]; 6 days, 51.3 PPM): 0.0
H2S ([1]; 6 days, 102.5 PPM): 8.7 PPM
Log (Growth) ([1]; 6 days, 102.5 PPM): 0.0
H2S ([1]; 6 days, 205.0 PPM): 9.0 PPM
Log (Growth) ([1]; 6 days, 205.0 PPM): 0.0
inhibition under anaerobic as opposed to aerobic conditions [2]: preferentially inhibited hydrogen sulfide production under anaerobic conditions
killing of the various microorganism strains [2]: completely killing
